Measured values as given in publication PMC7554048, “FBI-1 enhanced the resistance of triple-negative breast cancer cells to chemotherapeutic agents via the miR-30c/PXR axis” (Cell Death & Disease, 2020).

Experiment: Olaparib sustained in cultured TNBC cells, LC-MS/MS (half-life)
Format: in vitro ADME, human
Conditions: TNBC cells (PDC No. 3 and 9) overexpressing FBI-1
Procedure: TNBC cells transfected with plasmids were used for the pharmacokinetic experiments to examine the amount of olaparib sustained in the cells. For the cell-based experiments, cells were treated with 1 μmol/L concentration of olaparib for 12 h[33]. Then, cells were harvested at indicated time-points. For the animal experiments, TNBC cells were injected into the subcutaneous position to form subcutaneous tumor tissues. After 2–3 weeks’ growth, when the tumor volumes reached 1500–2000 mm^3, the solution of olaparib was injected into the subcutaneous tumors. Then, the tumor tissues were harvested at indicated times[34],[35]. The olaparib in cells or tumor tissues was extracted by acetonitrile (ACN), and the amount of olaparib sustained in cells or tumor tissues at each time point was determined by liquid chromatography–mass spectrometry/mass spectrometry (LC-MS/MS), following the methods established by Krens et al.[36]. The sustaining rates of olaparib were calculated as (the amount of olaparib at each time)/(the amount of olaparib at 0-time) × 100%. The sustaining curves or the half-time life (t1/2) of olaparib was obtained by the sustained rates of olaparib.

Q: Which “effect of ketoconazole on FBI-1-accelerated elimination or clearance of olaparib” value does the source give for `CC(=O)N1CCN(c2ccc(OCC3COC(Cn4ccnc4)(c4ccc(Cl)cc4Cl)O3)cc2)CC1` (stereo not shown) [ketoconazole] here?
A: Its value is “almost blocked the effect of FBI-1 on olaparib in TNBC cells”.
